Here are results for 2 compounds from patent publication US20240417399A1, “ARYL HYDROCARBON RECEPTOR (AHR) MODULATORS AND THERAPEUTIC USES THEREOF” (GALILEO BIOSYSTEMS, INC., priority 2021, published 2024).

Structures are written as SMILES.

One data set concerns CCL2. The experiment in a line: CCL2 release from human keratinocytes, inflammation induced by IL-4, IL-13, IL-22 and IFN-γ. The format is cell-based. Conditions: human keratinocytes induced by IL-4, IL-13, IL-22 and IFN-γ. The text has this:
(§1) Inflammation of human keratinocytes was induced by IL-4, IL-13, IL-22 and IFN-γ. […] FIG. 5B depicts concentration response curves of CCL2 release and cell viability for tapiranof.

The subject of another data set is IL-4. Put plainly: IL-4 release from T-cells, inflammation induced by CD2, CD3, and CD28. Conditions: highest test concentrations. The format is cell-based. The source says:
(§2) Inflammation of T-cells were induced by CD2, CD3, and CD28. […] FIG. 7B depicts concentration response curves of inhibition of IL-2 and IL-4 release and cell viability for tapiranof.

Data set [1] is described as follows: Imiquimod (IMQ)-induced skin inflammation: body weight. Type of data set: in vivo. Conditions: Balb/c mice, topical on right ear, 20 μL, 50 mM once daily Day 1 to Day 9. As for the experimental part:
(§3) The compounds are administered on the right ear once daily from Day 1 to Day 9 for 9 consecutive days. […] Daily Clobetasol dosage is 20 mg of 0.05% cream. One hour after administration, 15 mg imiquimod (IMQ) cream (5%, Aldaras) is applied topically on the right ear from Day 1 to Day 9 for 9 consecutive days. Ear swelling is measured (mm) as an index of inflammation on Day 0 and thereafter 30 min before dosing on Days 2, 4, 6 and 8. On Day 10, ear swelling is measured 24 hours after the last dosing. Ear edema is calculated by subtracting the thickness of Day 0 (normal control) from Day n (treated ear). Percent inhibition is calculated according to the formula: (Lc−Lt)/Lc×100, where Lc and Lt refer to increase of ear thickness in control and treated mice, respectively. Clinical scoring is done on the same days as the measurement of ear swelling. Body weight is recorded on Day 0 and thereafter daily before dosing. […] Right ears are harvested, weighed after the last ear swelling measurement, and cut into two parts, one part to be kept in 10% formalin for histopathological examination and the second part to be stored in RNAlater® solution at −20° C. for detection of IL-17 A, IL-22, GAPDH, and beta defensin with quantitative real-time PCR (qPCR). Dermal thickness is measured after taking photographs under a light microscope for the histopathological examination sections. […]

Another data set has as its system Male Balb/c mice. The experiment in a line: Imiquimod (IMQ)-induced skin inflammation: ear swelling. The format is in vivo. To be noted: topical on right ear, 20 μL, 50 mM once daily Day 1 to Day 9, IMQ cream. As for the experimental part:
as §3

The test system of a further data set is IL-17. Put plainly: Imiquimod (IMQ)-induced skin inflammation: IL-17 gene expression in ear by qPCR. To be noted: Balb/c mice, topical on right ear, 20 μL, 50 mM once daily Day 1 to Day 9, IMQ cream. Type of data set: in vivo. The protocol:
as §3
On the technique in general: Real-time PCR tracks product formation cycle by cycle.

In a further data set the test system is IL-2. The experiment in a line: IL-2 release from T-cells, inflammation induced by CD2, CD3, and CD28. To be noted: highest test concentrations. The format is cell-based.
Excerpt: as §2

Another data set concerns IL-8. Put plainly: IL-8 release from human keratinocytes, inflammation induced by IL-17 and IFN-α. Type of data set: cell-based. Conditions: human keratinocytes induced by IL-17 and IFN-α. The text has this: FIG. 6B depicts concentration response curves of inhibition of IL-8 release and cell viability for tapiranof.
A further data set relates to human keratinocytes. The experiment in a line: Cell viability of human keratinocytes, inflammation induced by IL-4, IL-13, IL-22 and IFN-γ. Type of data set: cell-based. Conditions: human keratinocytes induced by IL-4, IL-13, IL-22 and IFN-γ.
Excerpt: as §1

On to `O=C(c1nc2ccccc2[nH]1)c1c[nH]c2ccccc12` [Compound 10], for which the “inhibition of CCL2 release” value with CCL2 is reported as “inhibited release of CCL2”. For the same compound, in the data set on IL-4, the “inhibition of IL-4 release” value was “inhibited release of IL-2 and IL-4 at the highest test concentrations”. The “effect on body weights” value in data set [1] is listed as “no significant effect on body weights”. Also, in the data set on Male Balb/c mice, the “ear swelling compared to vehicle” value is recorded as “significant reductions in ear swelling”. Further, the “IL-17 gene expression in the ear” value in the data set with IL-17 is reported as “reduction in IL-17 gene expression”. In the data set with IL-2, the “inhibition of IL-2 release” value is “inhibited release of IL-2 and IL-4 at the highest test concentrations”. Besides, the “inhibition of IL-8 release” value with IL-8 was “inhibited release of IL-8”.

With `CC(C)c1c(O)cc(/C=C/c2ccccc2)cc1O` [tapiranof, reference compound], the “inhibition of CCL2 release” value in the data set with CCL2 was “inhibited release of CCL2”. Also, the “inhibition of IL-4 release” value in the data set with IL-4 is “inhibited release of IL-2 and IL-4 at the highest test concentrations”. In addition, the cell viability result with human keratinocytes is “inhibition of cell viability at higher concentrations”. Moreover, in the data set on IL-2, the “inhibition of IL-2 release” value is “inhibited release of IL-2 and IL-4 at the highest test concentrations”. Further, in the data set with IL-8, the “inhibition of IL-8 release” value is on record as “inhibited release of IL-8”.
